These are literature values, as cited in patent publication US8580245B2, “Compositions and methods for treating and preventing cardiomyopathy and heart disease” (The Regents of the University of Michigan, priority 2005, dated 2013).

Structures are written as SMILES.

This series has as its system elderly men with isolated diastolic dysfunction. The note with it: verapamil vs placebo, 20 elderly men, p<0.05.

Regarding `COc1ccc(CCN(C)CCCC(C#N)(c2ccc(OC)c(OC)c2)C(C)C)cc1OC` (stereo not shown) [verapamil], the exercise time increase was 33%, the heart rate decrease is recorded as 10%, the “peak left ventricular filling rate increase” value is recorded as 30% and the symptoms result was “improved”.
